Entries after “also recorded” stand apart in the source; their conditions may differ.
What was measured:
[1] = tested on: antigen-specific CD8+ T cells; assay: High-dimensional phenotypic profiling of antigen-specific CD8+ T cells (t-SNE, Phenograph, One-SENSE, Scorpius); assay type: cell-based, human
Protocol: Validated antigen-specific CD8+ T cells were exported individually from each donor for dimensionality reduction analysis. Detailed methodology for t-SNE and One-SENSE can be found elsewhere. Briefly, t-SNE and One-SENSE were performed using custom R scripts based on “flowCore” and “Rtsne” packages downloaded from The Comprehensive R Archive Network (CRAN). All data were transformed using the “logicleTransform” function and w=0.25, t=16409, m=4.5, a=0 as input parameters to roughly match scaling historically used in FlowJo. Cellular markers analyzed by t-SNE and One-SENSE were indicated (table S2). For One-SENSE, cellular markers in each T cell category (“Differentiation+TNFR”, “Exhaustion” and “Trafficking”) were subjectively assigned for categorical analysis. Aligned heatplots represent the distribution of marker positive cells in percentage on each “bin” on the axis (category) constructed by cells residing in small ranges of values. Positive population of markers was manually defined and markers of the same category were combined for each dimension using 250 bins.
Logistic regression was performed using the drc R package (v 3.0.1) using a 3-parameters logistic model.

[2] = tested on: HLA-A*11:01-restricted antigen-specific CD8+ T cells in patient's PBMC; assay: Highly multiplexed combinatorial pMHC tetramer staining with mass cytometry (epitope mapping, frequency of antigen-specific CD8+ T cells); details: for detection / frequency of epitope-specific CD8+ T cells across patient groups: ex vivo PBMC, groups IT, IA, InA, R, HD, CB
[3] = tested on: virus-specific CD8+ T cells in patient PBMC; assay: In vitro virus-specific CD8+ T cell expansion by peptide stimulation with intracellular cytokine staining; assay type: cell-based, human
Protocol: PBMC from patients were thawed and recovered, and then resuspend in AIM-V medium (with 2% human AB serum, 1% penicillin/streptomycin/L-glutamine, 1% 1M HEPES) (Gibco, Invitrogen) with 20 IU/ml of recombinant human IL-2 (R&D). Cells were pulsed with corresponded HBV or control peptides at 1 μM per 1 million cells in 200 μl medium in 96-well round-bottom tissue culture plate and cultured for 10 days at 37° C. Half of the medium was replaced as supplementary every three days without any peptide. […] After incubation, cells were collected and then stained with the 50-plex pMHC tetramers (table S1) and surface antibodies. Intracellular cytokine staining was performed on the second day as indicated in (table S2). All staining, cellular barcoding, and CD8 T cell enrichment were done in the same manner as ex vivo staining described above.

[4] = Immune Active (IA) CHB patients, patients with detected tetramer+ CD8+ T cells (frequency > 0.002%) / patients in the group, per epitope cluster
[5] = Immune Tolerant (IT) CHB patients, patients with detected tetramer+ CD8+ T cells (frequency > 0.002%) / patients in the group, per epitope cluster
[6] = Inactive Carrier (InA) CHB patients, patients with detected tetramer+ CD8+ T cells (frequency > 0.002%) / patients in the group, per epitope cluster
[7] = patients with detected epitope-specific CD8+ T cells / patients tested, acute resolved (R) group, Freq > 0.002%
[8] = Acute resolved (R) patients, patients with detected tetramer+ CD8+ T cells (frequency > 0.002%) / patients in the group, per epitope cluster
[9] = acute resolved (R) patients, donors with tetramer+ CD8+ T cell frequency > 0.002% / donors tested
[10] = Immune Active (IA) patients, donors with tetramer+ CD8+ T cell frequency > 0.002% / donors tested

## HBV-C-195v2: HBV core epitope, cluster 283, 1 unique peptide (RSQSPRRRRSK; Hepatitis B virus)
[1]; ex vivo
  phenotype of tetramer-stained epitope-specific CD8+ T cells: mostly naïve-like phenotype
[2]
  detection / frequency of epitope-specific CD8+ T cells across patient groups: highest frequencies observed

## LVVDFSQFSR (Hepatitis B virus) [HBV-P-387]
[3]; 10 days in vitro culture, 1 μM peptide
  expansion of antigen-specific CD8+ T cells upon peptide stimulation: less expanded in IT patients
[3]; 10 days in vitro peptide stimulation, restimulation 7 hours
  functional subset of virus-specific CD8+ T cells after antigen recall (One-SENSE): multi-functional subset
[1]; Boolean strategy, across patient groups
  numbers of co-expressed inhibitory receptors on epitope-specific CD8+ T cells: no differences in terms of the numbers accumulated on the cells across patient groups
[1]; IT patients
  proportion of cells with C13-like phenotype (CXCR3+CD27hiCD127hi) within HBVpol387-specific CD8+ T cells: ~80%
[2]
  detection / frequency of epitope-specific CD8+ T cells across patient groups: highest frequencies observed; also recorded: relatively high frequency in CHB and also in half of the HD tested

## TVNHYFQTR
[2]; [4]
  Hits (Freq > 0.002%) IA: 4/12
[2]; [5]
  Hits (Freq > 0.002%) IT: 5/8
[2]; [6]
  Hits (Freq > 0.002%) InA: 5/13

## TVPCFNPK
[2]; [6]
  Hits (Freq > 0.002%) InA: 1/13

## TVRAFSRAYHHRINR
[2]; [7]
  Hits (Freq > 0.002%) R: 1/12

## TVSAISSILSK
[2]; [8]
  Hits (Freq > 0.002%) R: 1/12
[2]; [4]
  Hits (Freq > 0.002%) IA: 2/12
[2]; [5]
  Hits (Freq > 0.002%) IT: 1/8

## VSAISSILSK
[2]; [4]
  Hits (Freq > 0.002%) IA: 1/12

## VSLMLLYK
[2]; [9]
  Hits (Freq > 0.002%) R: 1/12

## VTGGVFLVDK
[2]; [10]
  Hits (Freq > 0.002%) IA: 1/12

## VTKYLPLDK
[2]; [8]
  Hits (Freq > 0.002%) R: 2/12
[2]; [5]
  Hits (Freq > 0.002%) IT: 1/8
[2]; [6]
  Hits (Freq > 0.002%) InA: 3/13

## YVNVNMGLK
[2]; patients with detected epitope-specific CD8+ T cells / patients tested, Immune Active (IA) group, Freq > 0.002%
  Hits (Freq > 0.002%) IA: 1/12
[2]; [7]
  Hits (Freq > 0.002%) R: 1/12

## YVSLLLLYK
[2]; [10]
  Hits (Freq > 0.002%) IA: 2/12
[2]; Immune Tolerant (IT) patients, donors with tetramer+ CD8+ T cell frequency > 0.002% / donors tested
  Hits (Freq > 0.002%) IT: 2/8
[2]; Inactive Carrier (InA) patients, donors with tetramer+ CD8+ T cell frequency > 0.002% / donors tested
  Hits (Freq > 0.002%) InA: 3/13
[2]; [9]
  Hits (Freq > 0.002%) R: 1/12
